The values below come from patent US11801266B2, “Methods of using anti-MIR126 compounds” (CITY OF HOPE, priority 2019, dated 2023).

One series relates to CML LSCs. Put plainly: In vivo treatment of CML mice (SCLtTA/BCR-ABL BM cells transplanted into congenic B6 mice). Also on record: species or system mouse. The settings on record: CML mice, 3 weeks of treatment, followed 60 days after treatment discontinuation. The method, then:
Next, we transplanted BM cells from SCLtTA/BCR-ABL mice (CD45.2) into congenic B6 mice (CD45.1). Following confirmation of CML development at 4 weeks after transplantation, mice were treated as above with scrRNA, inhibitor, scrRNA+NIL, or inhibitor+NIL for 3 weeks.

The test system of a further series is CML CD34+ cells. Put plainly: MAPK/ERK, BCL-2 and apoptosis in NIL-treated CML CD34+ cells. The class given is cell-based, human. The method, then:
After transduction performed as above, GFP+ cells selected at 48 h were exposed to NIL (2 μM and 5 μM, Novartis) for another 72 h, and analyzed using assays for cell growth, apoptosis, cell cycle, CFC and CFC replating. […] Cell growth was measured by Lumino Glo (Promega). Apoptosis was measured by labeling cells with Annexin V-PE or FITC or APC and 4, 6-diamidino-2-phenylindole (DAPI) (all from BD-PharMingen, San Diego, Calif.) and analyzed by flow cytometry. […] Cells were also exposed to EdU (C10640, Invitrogen) for 2 h and EdU staining was analyzed according to the manufacturer's protocol. Cell proliferation was also measured by CFSE staining (Molecular probes) based on the manufacturer's protocol. For CFC, Lin-CD34+CD38− cells cultured with or without NIL (5 μM) were plated in methylcellulose progenitor culture, and burst-forming unit-erythroid and colony-forming unit-granulocyte and macrophage cells were counted after 14 days. Colony replating assays were performed by collecting and pooling colonies from primary CFC assays and plating 10,000 cells in secondary CFC assays.
(§1) Proteins were resolved on 10% sodium dodecyl sulfate-polyacrylamide gel electrophoresis (SDS-PAGE) gels and transferred to nitrocellulose membrane. Membranes were sequentially reprobed with primary and secondary antibodies. […] Horseradish peroxidase-conjugated secondary antibodies were from Jackson ImmunoResearch Laboratories (Westgrove, Pa.). Antibody detection was performed using the Superfemto kit (Pierce Biotechnology, Rockford, Ill.). Protein levels were determined by densitometry using Image-Quant software (Amersham Pharmacia Biotech, Piscataway, N.J.).

Series [1] concerns BCR-ABL+ primary CD34+ and/or K562 cells. Type of series: cell-based, human. On the procedure: Nuclei were counterstained with DAPI.
as §1

The test system of another series is CML LT-HSCs. Description: NIL treatment of miR-126flox/wt/Tie2+ or Tie2− mice transplanted with CML LT-HSCs. The class given is in vivo, mouse. Particulars: NIL 50 mg/kg daily oral gavage for 3 weeks. The method, then: Next, we sorted CML LT-HSCs from induced CD45.1/CD45.2 SCLtTA/BCR-ABL mice and transplanted them into CD45.2 miR-126^flox/wt/Tie2+ (heterozygous miR-126 KO allele in ECs) or Tie2− (WT miR-126 allele in ECs) mice. After confirming CML development, we treated the mice with NIL (50 mg/kg, daily by oral gavage) or vehicle for 3 weeks.
Animal studies. Inducible transgenic SCLtTA/BCR-ABL mice in the FVB/N background^37,38 were backcrossed to the B6 background (CD45.2) for 10 generations. Transgenic BCR-ABL mice were maintained on tetracycline water at 0.5 g/L. Withdrawal of tetracycline results in expression of BCR-ABL and generation of a CML-like disease in these mice^37,38. Unless otherwise indicated, BCR-ABL expression was induced for 2-3 weeks by tetracycline withdrawal in 6-8 weeks old male and female mice and then BM cells (from both tibias and femurs) were collected for experiments. SCLtTA/BCR-ABL mice (CD45.2, B6) were also bred with CD45.1 B6 mice to produce CD45.1/CD45.2 SCLtTA/BCR-ABL mice as donors. miR-126^flox/flox mice (B6, from Dr. Kuo, Stanford) were crossed with Mx1-cre, Tie2-cre (both from The Jackson Laboratory) and SCLtTA/BCR-ABL mice (all B6) to obtain the following strains: miR-126^flox/flox/Mx1-cre, SCLtTA/BCR-ABL/miR-126^flox/flox/Mx1-cre, miR-126^flox/wt/Tie2-cre and miR-126^flox/flox/Tie2-cre. […]

The test system of the next series is human BCR-ABL+K562 cells. Put plainly: NIL treatment of K562 cells: miR-126 staining. The class given is cell-based. The settings on record: K562 cells with and without 5 μM NIL. On the procedure:
K562, HUVEC, normal and CML CD34+CD38− cells were cultured and incubated with miR126 SmartFlare RNA probe (EMD Millipore) for 16 h. […] Cells were then washed in 1× phosphate buffered saline (PBS) and fixed in 4% paraformaldehyde for 3 min. Nuclei were counterstained with DAPI and the images were analyzed using a confocal microscope (Carl Zeiss).

In the next series the test system is human CML HSCs. Description: NIL treatment of human CML HSCs: miR-126, PIK3R2, SPRED1 expression and cell cycle. The class given is cell-based. The method, then:
After transduction performed as above, GFP+ cells selected at 48 h were exposed to NIL (2 μM and 5 μM, Novartis) for another 72 h, and analyzed using assays for cell growth, apoptosis, cell cycle, CFC and CFC replating. Human HSCs and mouse LT-HSCs were also treated with CpG-miR-126 inhibitor or CpG-scrRNA (500 nM), with or without NIL (5 μM), for 72 h and analyzed for cell growth, apoptosis, cell cycle and CFC. Human CML HSCs co-cultured with control or miR-126 KD HUVECs and mouse CML LT-HSCs co-cultured with control or miR-126 KD ECs for 96 h, with or without NIL (5 μM), were also analyzed for cell growth, apoptosis, cell cycle and CFC. Cell growth was measured by Lumino Glo (Promega). Apoptosis was measured by labeling cells with Annexin V-PE or FITC or APC and 4, 6-diamidino-2-phenylindole (DAPI) (all from BD-PharMingen, San Diego, Calif.) and analyzed by flow cytometry. Cell cycle was analyzed by Ki-67-Alexa Fluor 647 (B56, BD) and DAPI labeling based on the manufacturer's protocol. Cells were also exposed to EdU (C10640, Invitrogen) for 2 h and EdU staining was analyzed according to the manufacturer's protocol. Cell proliferation was also measured by CFSE staining (Molecular probes) based on the manufacturer's protocol. For CFC, Lin-CD34+CD38− cells cultured with or without NIL (5 μM) were plated in methylcellulose progenitor culture, and burst-forming unit-erythroid and colony-forming unit-granulocyte and macrophage cells were counted after 14 days. […]
To measure the miRNA and mRNA expression, total RNA was extracted using the miRNeasy Mini Kit (Qiagen, Valencia, Calif.). […] BCR-ABL expression in human and mouse samples were measured with primer and probe sequences for BCR-ABL (B3A2 or B2A2), as previously described^46. […]
K562, HUVEC, normal and CML CD34+CD38− cells were cultured and incubated with miR126 SmartFlare RNA probe (EMD Millipore) for 16 h. […] Nuclei were counterstained with DAPI and the images were analyzed using a confocal microscope (Carl Zeiss).

The mark [2] stands for this setting: CML CD34+ cells, NIL treatment, western blot.

Turning to “5′ G*G*T GCA TCG ATG CAGG*G*G* G*G xxxxx mGmUmA mGmAmA mCmCmG mUmAmC mUmCmG mUmCmA mCmUmU mA 3′ (GGTGCATCGATGCAGGGGGGGUAGAACCGUACUCGUCACUUA; phosphorothioate, 2'-O-methyl, linker; (1)..(2) phosphorothioation; (2)..(3) phosphorothioation; (16)..(17) phosphorothioation; (17)..(18) phosphorothioation; (18)..(19) phosphorothioation; (19)..(20) phosphorothioation; (20)..(21) ((CH2)3)5; (20)..(21) Five C3 carbon chain linkers, ((CH2)3)5; modified_base (21)..(21) gm; modified_base (22)..(22) um; modified_base (23)..(23) 2′-O-Methyladenosine; modified_base (24)..(24) gm; modified_b) [scrRNA, CpG ODN linked to scrambled RNA, control oligonucleotide]”, the mice that survived entry with CML LSCs was “all of the mice treated with scrRNA alone died of leukemia”.
Turning to `Cc1cn(-c2cc(NC(=O)c3ccc(C)c(Nc4nccc(-c5cccnc5)n4)c3)cc(C(F)(F)F)c2)cn1` [NIL, nilotinib], the cell survival entry in the series on CML CD34+ cells (CML CD34+ cells, NIL treatment) is listed as “promoted survival”. Further, in the series with CML CD34+ cells (setting [2]), the BCL-2 expression entry is on record as “increased” and the MAPK/ERK activation result was “enhanced”. Besides, in series [1], the SPRED1 phosphorylation entry is “de-phosphorylation”; the “binding and co-localization of SPRED1 with RAN” value was “decreased”; the “formation of RAN/Exp-5/RCC1 complex” value is listed as “increased”; the “mature miR-126 levels” value is on record as “increased”. For the same compound, in series [1], the “pri- and pre-miR-126 levels” value is “decreased”; the “ratio of pri- and pre-miR-126 to mature miR-126 levels” value is recorded as “decreased”. In the series on CML LT-HSCs (Tie2− mice (WT miR-126 in ECs) transplanted with CML LT-HSCs, untreated Tie2− approx. day 60), the “day of 50 percent survival” value was approximately 150 days. Besides, in the series with CML LT-HSCs (miR-126flox/wt/Tie2+ mice (heterozygous miR-126 KO in ECs) transplanted with CML LT-HSCs), the “survival at day 150” value is reported as “all NIL-treated Tie2+ mice were alive”. The miR-126 expression entry in the series with human BCR-ABL+K562 cells is recorded as “increased”. The “fraction of quiescent cells” value with human CML HSCs (human CML HSCs, 5 μM NIL vs DMSO, cell cycle analysis) was “increased”. Further, the SPRED1 levels result in the series on human CML HSCs (human CML Lin-CD34+CD38− cells treated with NIL, compared with vehicle alone, QPCR) was “decreased”. Moreover, the miR-126 expression result with human CML HSCs (human CML Lin-CD34+CD38− cells, NIL 2 μM or 5 μM, compared with vehicle alone, QPCR and miRNA staining) was “increased”.
In the case of `O=C(NOC[C@H](O)CO)c1ccc(F)c(F)c1Nc1ccc(I)cc1F` [PD0325901], the NIL-induced apoptosis entry in the series on CML CD34+ cells (CML Lin-CD34+ cells, PD0325901 500 nM in combination with NIL, 72 h) was “enhanced”.
